Measured values taken from patent publication US4209612A, “Fortimicin factors KF and KG and process for production thereof” (Abbott Laboratories, priority 1977, dated 1980).
In brackets after ≈: the same amount, converted by molar mass. Entries after “also recorded” stand apart in the source; their conditions may differ.

What was measured:
[1] = system: Bacillus subtilis No. 10707; test: Minimum inhibitory concentration, agar dilution method at pH 8.0; assay type: cell-based
Excerpt: (§1) In the following Table 4, the antibacterial spectra of Fortimicin KF and Fortimicin KG against various microorganisms are set forth.
(§2) (Minimum Inhibitory Concentration, γ/ml measured by
(§3) agar dilution method at pH 8.0)

Escherichia coli ATCC 26 = test: as above; assay type: cell-based; conditions: ATCC26
Excerpt: as §1, §2, §3

[2] = system: Klebsiella pneumoniae ATCC 10031; test: as above; assay type: cell-based; conditions: ATCC10031
Excerpt: as §1, §2, §3

[3] = system: Proteus vulgaris ATCC 6897; test: as above; assay type: cell-based; conditions: ATCC6897
Excerpt: as §1, §2, §3

[4] = system: Salmonella typhosa ATCC 9992; test: as above; assay type: cell-based; conditions: Salmonella enterica
Excerpt: as §1, §2, §3

[5] = system: Shigella sonnei ATCC 9290; test: as above; assay type: cell-based; conditions: ATCC9290
Excerpt: as §1, §2, §3

[6] = system: Staphylococcus aureus ATCC 6538P; test: as above; assay type: cell-based; conditions: ATCC6538P
Excerpt: as §1, §2, §3

[7] = system: Gram-positive and Gram-negative bacteria; test: Antibacterial spectrum (overall); assay type: cell-based; conditions: in words
Excerpt: as §1, §2, §3

[8] = system: Bacillus subtilis No. 10707; test: Antibacterial activity of the preparate (units/mg), paper disc method; assay type: cell-based
Procedure: After the completion of fermentation, the culture liquor is adjusted to pH 2.5 with concentrated sulfuric acid and is stirred for 30 minutes. Thereafter, about 7 kg of a filter aid, Radiolite No. 600 (product of Showa Kagaku Kogyo Co., Ltd.) is added to the culture liquor and the microbial cells are removed by filtration. The filtrate is adjusted to pH 7.5 by the addition of 6 N sodium hydroxide. The resulting filtrate is passed through a column packed with about 20 L. of a cation exchange resin, Amberlite IRC-50 (ammonia form). The active principles are adsorbed on the resin. After the resin is washed with water, elution of the active principles is carried out with 1 N aqueous ammonia. The eluate is subjected to determination of activity by a paper disc method using an agar plate of Bacillus subtilis No. 10707. Fractions showing activity are combined and concentrated under reduced pressure to about 1 L. The concentrate is passed through a column packed with 500 ml of an anion exchange resin, Dowex 1×2 (OH form) and then about 2 L. of water is passed through the column. In this manner, impurities are removed and the active principles are eluted with water. The active fractions are combined and concentrated under reduced pressure to about 100 ml. The concentrate is then passed through a column packed with about 50 ml of active carbon powder. The active principles are adsorbed on the active carbon. The column is washed with water. The effluent and washings are discarded. Elution is then carried out with 0.2 N sulfuric acid. The eluate is subjected to determination of activity by a paper disc method using Bacillus subtilis No. 10707. The active fractions are combined and passed through a column of an anion exchange resin, Dowex 44 (OH form) and elution of the active principles is carried out with water. The active fractions are combined and concentrated to about 60 ml. The concentrate is then freeze-dried to obtain a crude powder of Fortimicin complex. The yield of the crude powder is about 40 g.
(§4) The powder is charged over about 500 ml of silica gel in a glass column to form a uniform, thin layer. The silica gel is previously suspended in a mixed solvent of chloroform, ethanol, concentrated aqueous ammonia and acetone (2:2:1:2 by volume), and packed in the glass column to form a tight, uniform layer. The column is then thoroughly washed with the same solvent. After the crude powder is charged, the solvent having the same composition as described above is poured gradually into the column from the top and thereafter elution is carried out continuously at a flow rate of 50 ml/hour. The eluate is recovered in 20 ml fractions and the activity of each of the fractions is determined by a paper disc method using Bacillus subtilis No. 10707. First, Fortimicin KF is eluted followed by Fortimicin A and Fortimicin D. The active fractions are subjected to thin layer chromatography. The fractions containing Fortimicin KF are collected and concentrated under reduced pressure to remove the solvent.
The residue is dissolved in a small amount of water and then the solution is freeze-dried to obtain about 2 g of a purified preparate of the free base of Fortimicin KF.
as §4, with “This powder” for “The powder”, “the” for “the crude”, “10707. […]” for “10707. First, Fortimicin KF is eluted followed by Fortimicin A and Fortimicin D. The active fractions are subjected to thin layer chromatography. The fractions containing Fortimicin KF are collected and concentrated under reduced pressure to remove the solvent.”

[9] = Solubility of the free base; assay type: physicochemical; conditions: for solubility in organic solvents / solubility in ethanol and acetone / solubility in methanol / solubility in water: free base; for solubility in organic solvents: chloroform, benzene, ethyl acetate, butyl acetate, ether, butanol, petroleum ether, n-hexane
[10] = Example 3, before cellulose column chromatography
[11] = Example 3, purified preparate of the free base after cellulose column chromatography
[12] = purified preparate of the free base, Examples 1 and 2 (1 mg of a pure preparate defined as 1000 units)

Compound | MIC [1] [µg/mL] | MIC (Escherichia coli ATCC 26) [µg/mL] | MIC [2] [µg/mL] | MIC [3] [µg/mL] | MIC [4] [µg/mL] | MIC [5] [µg/mL] | MIC [6] [µg/mL] | antibacterial activity [7] | antibacterial activity ([7]; listed as KF) | activity [8, 10] [units/mg] | activity [8, 11] [units/mg] | activity ([8]; Example 4) [units/mg] | activity [8, 12] | solubility in organic solvents [9] | solubility in ethanol and acetone [9] | solubility in methanol [9] | solubility in water [9] | solubility in the ordinary organic solvents [9] | antibacterial activity ([7]; listed as KG)
CNC1C(O)C(OC2OC(CN)=CCC2N)C(N)C(O)C1OC (stereo not drawn) [Fortimicin KF] | 4.2 (≈ 12.6 µM) | 4.2 (≈ 12.6 µM) | 4.2 (≈ 12.6 µM) | 4.2 (≈ 12.6 µM) | 4.2 (≈ 12.6 µM) | 8.4 (≈ 25.3 µM) | 2.1 (≈ 6.32 µM) | strong antibacterial activity against a broad range of Gram-positive and Gram-negative bacteria | broad antibacterial activity | 860 | 980 | 985 | about 970 units/mg | insoluble | slightly soluble | soluble | readily soluble; also recorded: very soluble | poorly soluble | 
CNC1C(O)C(OC2OC(C(C)N)=CCC2N)C(N)C(O)C1OC (stereo not drawn) [Fortimicin KG] | 4.5 (≈ 13 µM) | 4.5 (≈ 13 µM) | 4.5 (≈ 13 µM) | 4.5 (≈ 13 µM) | 2.3 (≈ 6.64 µM) | 9 (≈ 26 µM) | 1.1 (≈ 3.18 µM) | strong antibacterial activity against a broad range of Gram-positive and Gram-negative bacteria |  | 860 | 980 | 985 | about 970 units/mg | insoluble | slightly soluble | soluble | readily soluble; also recorded: very soluble | poorly soluble | broad antibacterial activity
